Measured values as given in ChEMBL document CHEMBL3745608, “Structure-based design, synthesis, and biological evaluation of Leu-Arg dipeptide analogs as novel hepsin inhibitors” (Bioorg Med Chem Lett, 2016).
Where a SMILES comes first, the peptide text is derived from it.

Columns and labels:
[1] = Selectivity ratio of Ki for mouse recombinant matriptase to Ki for human recombinant hepsin
[2] = target: T1, Suppressor of tumorigenicity 14 protein homolog (Mus musculus, UniProt P56677); test: Inhibition of mouse recombinant matriptase using Boc-QAR-AMC as substrate preincubated for 30 mins followed by substrate addition measured for 15 to 120 mins by plate reader analysis
T1 sequence (P56677 whole entry): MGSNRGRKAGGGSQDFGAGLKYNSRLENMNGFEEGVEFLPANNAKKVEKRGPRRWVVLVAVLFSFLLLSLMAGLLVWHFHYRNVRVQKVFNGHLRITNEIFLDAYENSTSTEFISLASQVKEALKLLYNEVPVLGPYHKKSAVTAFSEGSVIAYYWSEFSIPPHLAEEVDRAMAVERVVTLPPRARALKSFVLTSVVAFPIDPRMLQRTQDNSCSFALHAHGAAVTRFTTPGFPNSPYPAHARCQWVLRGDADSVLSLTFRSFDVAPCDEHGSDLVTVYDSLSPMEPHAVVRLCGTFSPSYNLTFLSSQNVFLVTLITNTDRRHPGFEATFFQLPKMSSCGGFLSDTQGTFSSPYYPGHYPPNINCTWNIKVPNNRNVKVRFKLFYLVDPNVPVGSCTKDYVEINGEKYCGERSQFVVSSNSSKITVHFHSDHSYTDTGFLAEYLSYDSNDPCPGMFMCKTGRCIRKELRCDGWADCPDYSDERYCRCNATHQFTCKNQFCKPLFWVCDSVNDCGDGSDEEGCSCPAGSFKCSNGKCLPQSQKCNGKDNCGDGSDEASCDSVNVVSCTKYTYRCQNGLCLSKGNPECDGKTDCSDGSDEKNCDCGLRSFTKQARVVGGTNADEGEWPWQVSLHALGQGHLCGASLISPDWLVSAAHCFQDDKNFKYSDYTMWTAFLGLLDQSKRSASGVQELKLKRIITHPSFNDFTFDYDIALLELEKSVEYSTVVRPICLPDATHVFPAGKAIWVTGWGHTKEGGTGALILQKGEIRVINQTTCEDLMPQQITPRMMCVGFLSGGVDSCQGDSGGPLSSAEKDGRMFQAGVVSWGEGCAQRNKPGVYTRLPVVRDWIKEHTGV

Serine protease hepsin = Serine protease hepsin (Homo sapiens, UniProt P05981); test: Inhibition of human recombinant hepsin using Boc-QAR-AMC as substrate preincubated for 30 mins followed by substrate addition measured for 15 to 120 mins by plate reader analysis
Chain of Serine protease hepsin (P05981 1-162 limits assumed): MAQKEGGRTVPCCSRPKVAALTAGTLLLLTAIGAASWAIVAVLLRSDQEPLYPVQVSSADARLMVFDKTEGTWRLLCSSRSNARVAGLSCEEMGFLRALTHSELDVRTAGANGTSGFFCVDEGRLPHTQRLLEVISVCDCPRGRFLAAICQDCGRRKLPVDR
Chain of Serine protease hepsin (P05981 163-417 limits assumed): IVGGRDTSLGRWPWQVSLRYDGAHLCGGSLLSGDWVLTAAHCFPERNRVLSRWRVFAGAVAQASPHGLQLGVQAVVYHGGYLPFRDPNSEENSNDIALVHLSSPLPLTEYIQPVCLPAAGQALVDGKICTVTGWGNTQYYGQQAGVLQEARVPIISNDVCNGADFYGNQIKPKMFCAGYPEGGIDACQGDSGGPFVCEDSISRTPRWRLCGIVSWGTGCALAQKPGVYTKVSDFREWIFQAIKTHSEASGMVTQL

| Structure (SMILES) | Ratio Ki [1] | Ki [2] [nM] | Ki (Serine protease hepsin) [nM] |
| --- | --- | --- | --- |
| CC(=O)N[C@@H](CCCCN)C(=O)N[C@@H](CCC(N)=O)C(=O)N[C@@H](CC(C)C)C(=O)O (Ac-Lys-Gln-Leu-OH) |  | > 10000 | > 10000 |
| CC(=O)N[C@@H](CCCCN)C(=O)N[C@@H](CCC(N)=O)C(=O)N[C@@H](CC(C)C)C(=O)N[C@H](CCCNC(=N)N)C(=O)c1nccs1 |  | 8 | 0.83 |
| CC(=O)N[C@@H](CCC(N)=O)C(=O)N[C@@H](CC(C)C)C(=O)N[C@@H](CCCNC(=N)N)C(=O)c1nccs1 | 8 | 11.3 | 1.04 |
| CC(=O)N[C@@H](CC(C)C)C(=O)N[C@@H](CCCN=C(N)N)C(=O)c1nc2ccccc2s1 | > 60 | 227 | 3.38 |
| CC(=O)N[C@@H](CCCNC(=N)N)C(=O)c1nccs1 |  | > 10000 | > 10000 |
| CC(=O)N[C@@H](CCCCN)C(=O)N[C@@H](CCC(N)=O)C(=O)N[C@@H](CC(C)C)C(=O)N[C@@H](CCCNC(=N)N)C(=O)c1nccs1 |  | 10.4 | 1.45 |
| CC(=O)N[C@@H](CCC(N)=O)C(=O)N[C@@H](CC(C)C)C(=O)N[C@H](CCCNC(=N)N)C(=O)c1nccs1 | 8 | 11.1 | 2.88 |

Results, then the molecule that gave them:

| Ratio Ki [1] | Ki [2] [nM] | Ki (Serine protease hepsin) [nM] | Structure (SMILES) |
| --- | --- | --- | --- |
| > 60 | 177 | 2.91 | CC(=O)N[C@@H](CC(C)C)C(=O)N[C@H](CCCNC(=N)N)C(=O)c1nc2ccccc2s1 |
| 8 | 246 | 21.5 | CC(=O)N[C@@H](CC(C)C)C(=O)N[C@H](CCCNC(=N)N)C(=O)c1nccs1 |
|  | > 10000 | > 10000 | CC(=O)N[C@@H](CC(C)C)C(=O)N[C@H](CCCNC(=N)N)C(=O)c1ccccc1 |
|  | > 10000 | > 10000 | CC(=O)N[C@@H](CC(C)C)C(=O)N[C@@H](CCCNC(=N)N)C(=O)c1ccccc1 |
| 8 | 334 | 22.4 | CC(=O)N[C@@H](CC(C)C)C(=O)N[C@@H](CCCNC(=N)N)C(=O)c1nccs1 |
